Measured values reported in patent publication US12077503B2, “Substituted cyclic amides and their use as herbicides” (FMC CORPORATION, priority 2015, dated 2024).

How the values were obtained:
Format in all cases: in vivo
[1] = tested on: barnyardgrass (Echinochloa crus-galli); test: Test G Pre-Emergence Protocol; conditions: Echinochloa crus-galli, pre-emergence, 312 h, evaluated after 13 days; for pest or weed control at 15.625 g/ha: 15.625 g ai/ha, read-out: Barnyard grass damage rating (100=total damage to plant; 0=no damage to plant); for pest or weed control at 62.5 g/ha: 62.5 g ai/ha, 100=total damage to plant, 0=no damage to plant, read-out: plant damage rating, Barnyardgrass; for pest or weed control at 250 g/ha: 250 g ai/ha, read-out: Barnyardgrass damage rating (100=total damage to plant; 0=no damage to plant)
Method in brief: (§1)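 Pre-emergence spray, 15.625/62.5/250 g/ha, vehicle acetone:water 50:50 + 0.5% Tween 20, applied 1 d after sowing. Glasshouse 24/16° C, 14 h light, 65% RH, watered twice daily. Visual damage rating at 13 d, 0–100 scale.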

[2] = tested on: corn (Zea mays); test: Test G Pre-Emergence Protocol; conditions: Zea mays, pre-emergence, 312 h, evaluated after 13 days; for plant injury at 15.625 g/ha: 15.625 g ai/ha; for plant injury at 15.625 g/ha / plant injury at 250 g/ha: read-out: Corn damage rating (100=total damage to plant; 0=no damage to plant); for plant injury at 62.5 g/ha: 62.5 g ai/ha, 100=total damage to plant, 0=no damage to plant, read-out: plant damage rating, Corn; for plant injury at 250 g/ha: 250 g ai/ha
Method in brief: as §1

[3] = tested on: giant foxtail (Setaria faberi); test: Test G Pre-Emergence Protocol; conditions: Setaria faberi, pre-emergence, 312 h, evaluated after 13 days; for pest or weed control at 15.625 g/ha: 15.625 g ai/ha; for pest or weed control at 15.625 g/ha / pest or weed control at 250 g/ha: read-out: Foxtail, Giant damage rating (100=total damage to plant; 0=no damage to plant); for pest or weed control at 62.5 g/ha: 62.5 g ai/ha, 100=total damage to plant, 0=no damage to plant, read-out: plant damage rating, Foxtail, Giant; for pest or weed control at 250 g/ha: 250 g ai/ha
Method in brief: as §1

[4] = tested on: ivy-leaved morning glory (Ipomoea hederacea); test: Test G Pre-Emergence Protocol; conditions: Ipomoea, pre-emergence, 312 h, evaluated after 13 days; for pest or weed control at 15.625 g/ha: 15.625 g ai/ha, read-out: Morning-glory, Ivy-leaved damage rating (100=total damage to plant; 0=no damage to plant); for pest or weed control at 62.5 g/ha: 62.5 g ai/ha, 100=total damage to plant, 0=no damage to plant, read-out: plant damage rating, Morningglory, Ivy-leaved; for pest or weed control at 250 g/ha: 250 g ai/ha, read-out: Morningglory, Ivy-leaved damage rating (100=total damage to plant; 0=no damage to plant)
Method in brief: as §1

[5] = tested on: redroot pigweed (Amaranthus retroflexus); test: Test G Pre-Emergence Protocol; conditions: Amaranthus retroflexus, pre-emergence, 312 h, evaluated after 13 days; for pest or weed control at 15.625 g/ha: 15.625 g ai/ha; for pest or weed control at 15.625 g/ha / pest or weed control at 250 g/ha: read-out: Pigweed, Redroot damage rating (100=total damage to plant; 0=no damage to plant); for pest or weed control at 62.5 g/ha: 62.5 g ai/ha, 100=total damage to plant, 0=no damage to plant, read-out: plant damage rating, Pigweed, Redroot; for pest or weed control at 250 g/ha: 250 g ai/ha
Method in brief: as §1

[6] = tested on: velvetleaf (Abutilon theophrasti); test: Test G Pre-Emergence Protocol; conditions: Abutilon theophrasti, pre-emergence, 312 h, evaluated after 13 days; for pest or weed control at 15.625 g/ha: 15.625 g ai/ha; for pest or weed control at 15.625 g/ha / pest or weed control at 250 g/ha: read-out: Velvetleaf damage rating (100=total damage to plant; 0=no damage to plant); for pest or weed control at 62.5 g/ha: 62.5 g ai/ha, 100=total damage to plant, 0=no damage to plant, read-out: plant damage rating, Velvetleaf; for pest or weed control at 250 g/ha: 250 g ai/ha
Method in brief: as §1

[7] = tested on: barnyardgrass (Echinochloa crus-galli); test: Test G Post-Emergence Protocol; conditions: Echinochloa crus-galli, post-emergence, 312 h; for pest or weed control at 15.625 g/ha: 15.625 g ai/ha, evaluated after 13 days (100=total damage to plant; 0=no damage to plant), read-out: Barnyardgrass damage rating; for pest or weed control at 62.5 g/ha: 62.5 g ai/ha, read-out: Barnyardgrass damage rating (100=total damage to plant; 0=no damage to plant); for pest or weed control at 62.5 g/ha / pest or weed control at 250 g/ha: evaluated after 13 days; for pest or weed control at 250 g/ha: 250 g ai/ha, read-out: damage to plant, Barnyardgrass (100=total damage to plant; 0=no damage to plant)
Method in brief: (§2)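 Sow in soil; grow 8 d (24/16 °C, 14 h light, 65% humidity); spray 15.625/62.5/250 g/ha in acetone:water 50:50 + 0.5% Tween 20; grow on, water twice daily; score damage 0–100 at 13 d.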

[8] = tested on: corn (Zea mays); test: Test G Post-Emergence Protocol; conditions: Zea mays, post-emergence, 312 h; for plant injury at 15.625 g/ha: 15.625 g ai/ha, evaluated after 13 days (100=total damage to plant; 0=no damage to plant), read-out: Corn damage rating; for plant injury at 62.5 g/ha: 62.5 g ai/ha, read-out: Corn damage rating (100=total damage to plant; 0=no damage to plant); for plant injury at 62.5 g/ha / plant injury at 250 g/ha: evaluated after 13 days; for plant injury at 250 g/ha: 250 g ai/ha, read-out: damage to plant, Corn (100=total damage to plant; 0=no damage to plant)
Method in brief: as §2

[9] = tested on: giant foxtail (Setaria faberi); test: Test G Post-Emergence Protocol; conditions: Setaria faberi, post-emergence, 312 h; for pest or weed control at 15.625 g/ha: 15.625 g ai/ha, evaluated after 13 days (100=total damage to plant; 0=no damage to plant), read-out: Foxtail, Giant damage rating; for pest or weed control at 62.5 g/ha: 62.5 g ai/ha, read-out: Foxtail, Giant damage rating (100=total damage to plant; 0=no damage to plant); for pest or weed control at 62.5 g/ha / pest or weed control at 250 g/ha: evaluated after 13 days; for pest or weed control at 250 g/ha: 250 g ai/ha, read-out: damage to plant, Foxtail, Giant (100=total damage to plant; 0=no damage to plant)
Method in brief: as §2

[10] = tested on: ivy-leaved morning glory (Ipomoea hederacea); test: Test G Post-Emergence Protocol; conditions: Ipomoea, post-emergence, 312 h; for pest or weed control at 15.625 g/ha: 15.625 g ai/ha, evaluated after 13 days (100=total damage to plant; 0=no damage to plant), read-out: Morningglory, Ivy-leaved damage rating; for pest or weed control at 62.5 g/ha: 62.5 g ai/ha, read-out: Morningglory, Ivy-leaved damage rating (100=total damage to plant; 0=no damage to plant); for pest or weed control at 62.5 g/ha / pest or weed control at 250 g/ha: evaluated after 13 days; for pest or weed control at 250 g/ha: 250 g ai/ha, read-out: damage to plant, Morningglory, Ivy-leaved (100=total damage to plant; 0=no damage to plant)
Method in brief: as §2

[11] = tested on: redroot pigweed (Amaranthus retroflexus); test: Test G Post-Emergence Protocol; conditions: Amaranthus retroflexus, post-emergence, 312 h; for pest or weed control at 15.625 g/ha: 15.625 g ai/ha, evaluated after 13 days (100=total damage to plant; 0=no damage to plant), read-out: Pigweed, Redroot damage rating; for pest or weed control at 62.5 g/ha: 62.5 g ai/ha, read-out: Pigweed, Redroot damage rating (100=total damage to plant; 0=no damage to plant); for pest or weed control at 62.5 g/ha / pest or weed control at 250 g/ha: evaluated after 13 days; for pest or weed control at 250 g/ha: 250 g ai/ha, read-out: damage to plant, Pigweed, Redroot (100=total damage to plant; 0=no damage to plant)
Method in brief: as §2

[12] = tested on: velvetleaf (Abutilon theophrasti); test: Test G Post-Emergence Protocol; conditions: Abutilon theophrasti, post-emergence, 312 h; for pest or weed control at 15.625 g/ha: 15.625 g ai/ha, evaluated after 13 days (100=total damage to plant; 0=no damage to plant), read-out: Velvetleaf damage rating; for pest or weed control at 62.5 g/ha: 62.5 g ai/ha, read-out: Velvetleaf damage rating (100=total damage to plant; 0=no damage to plant); for pest or weed control at 62.5 g/ha / pest or weed control at 250 g/ha: evaluated after 13 days; for pest or weed control at 250 g/ha: 250 g ai/ha, read-out: damage to plant, Velvetleaf (100=total damage to plant; 0=no damage to plant)
Method in brief: as §2

Compound	pest or weed control at 15.625 g/ha [1] [%]	pest or weed control at 62.5 g/ha [1] [%]	pest or weed control at 250 g/ha [1] [%]	plant injury at 15.625 g/ha [2] [%]	plant injury at 62.5 g/ha [2] [%]	plant injury at 250 g/ha [2] [%]	pest or weed control at 15.625 g/ha [3] [%]	pest or weed control at 62.5 g/ha [3] [%]	pest or weed control at 250 g/ha [3] [%]	pest or weed control at 15.625 g/ha [4] [%]	pest or weed control at 62.5 g/ha [4] [%]	pest or weed control at 250 g/ha [4] [%]	pest or weed control at 15.625 g/ha [5] [%]	pest or weed control at 62.5 g/ha [5] [%]	pest or weed control at 250 g/ha [5] [%]	pest or weed control at 15.625 g/ha [6] [%]	pest or weed control at 62.5 g/ha [6] [%]	pest or weed control at 250 g/ha [6] [%]	pest or weed control at 15.625 g/ha [7] [%]	pest or weed control at 62.5 g/ha [7] [%]	also measured
CN1C[C@@H](c2ccc(C(F)(F)F)cc2)[C@H](C(=O)Nc2nccs2)C1=O (racemic) [Compound 1554]	0	0	10	0	0	0	0	0	20	0	0	0	0	0	30	0	0	0	0	0	pest or weed control at 250 g/ha [7]: 0%; plant injury at 15.625 g/ha [8]: 0%; plant injury at 62.5 g/ha [8]: 0%; plant injury at 250 g/ha [8]: 0%; pest or weed control at 15.625 g/ha [9]: 0%; pest or weed control at 62.5 g/ha [9]: 0%; pest or weed control at 250 g/ha [9]: 0%; pest or weed control at 15.625 g/ha [10]: 0%; pest or weed control at 62.5 g/ha [10]: 0%; pest or weed control at 250 g/ha [10]: 0%; pest or weed control at 15.625 g/ha [11]: 0%; pest or weed control at 62.5 g/ha [11]: 0%; pest or weed control at 250 g/ha [11]: 0%; pest or weed control at 15.625 g/ha [12]: 0%; pest or weed control at 62.5 g/ha [12]: 0%; pest or weed control at 250 g/ha [12]: 0%
CN1C[C@@H](c2cnc(Cl)c(Cl)c2)[C@H](C(=O)Nc2cccc(F)c2F)C1=O (racemic) [Compound 1487]	30	90	80	10	20	70	80	90	90	0	0	20	0	0	80	0	0	30	50	60	pest or weed control at 250 g/ha [7]: 70%; plant injury at 15.625 g/ha [8]: 20%; plant injury at 62.5 g/ha [8]: 60%; plant injury at 250 g/ha [8]: 70%; pest or weed control at 15.625 g/ha [9]: 60%; pest or weed control at 62.5 g/ha [9]: 70%; pest or weed control at 250 g/ha [9]: 70%; pest or weed control at 15.625 g/ha [10]: 0%; pest or weed control at 62.5 g/ha [10]: 0%; pest or weed control at 250 g/ha [10]: 20%; pest or weed control at 15.625 g/ha [11]: 20%; pest or weed control at 62.5 g/ha [11]: 0%; pest or weed control at 250 g/ha [11]: 30%; pest or weed control at 15.625 g/ha [12]: 0%; pest or weed control at 62.5 g/ha [12]: 0%; pest or weed control at 250 g/ha [12]: 20%
COc1cc(NC(=O)[C@@H]2C(=O)N(C)C[C@H]2c2ccc(C(F)(F)F)cc2)ccn1 (racemic) [Compound 1589]	0	0	0	0	0	0	0	0	0	0	0	0	0	0	0	0	0	0	0	0	pest or weed control at 250 g/ha [7]: 0%; plant injury at 15.625 g/ha [8]: 0%; plant injury at 62.5 g/ha [8]: 0%; plant injury at 250 g/ha [8]: 0%; pest or weed control at 15.625 g/ha [9]: 0%; pest or weed control at 62.5 g/ha [9]: 0%; pest or weed control at 250 g/ha [9]: 0%; pest or weed control at 15.625 g/ha [10]: 0%; pest or weed control at 62.5 g/ha [10]: 0%; pest or weed control at 250 g/ha [10]: 0%; pest or weed control at 15.625 g/ha [11]: 0%; pest or weed control at 62.5 g/ha [11]: 0%; pest or weed control at 250 g/ha [11]: 0%; pest or weed control at 15.625 g/ha [12]: 0%; pest or weed control at 62.5 g/ha [12]: 0%; pest or weed control at 250 g/ha [12]: 0%
